Numbered stars: 1 amine (or outer) side, 2 acyl side, 3 side chain; on linkers, the order of the positions; unused ones are H or OH. Bridge positions count the residues as written; N and C are the ends. Peptide text beside a SMILES is read from it. * marks the point of attachment. C20 diacid = O=C(O)CCCCCCCCCCCCCCCCCCC(=O)*; γGlu = O=C(O)[C@H](CCC(=O)[*:2])N[*:1]; AEEA = NCCOCCOCC(=O)O
Legend:
[1] = target: T1, rat calcitonin receptor (rat CTR) (Rattus norvegicus, UniProt P32214); assay: cAMP production in HEK cells with stable recombinant expression of rat calcitonin receptor (rat CTR); assay type: cell-based; conditions: assay buffer with 0.1% BSA
T1 construct: expressed in transfected cells
T1 sequence (P32214 25-516): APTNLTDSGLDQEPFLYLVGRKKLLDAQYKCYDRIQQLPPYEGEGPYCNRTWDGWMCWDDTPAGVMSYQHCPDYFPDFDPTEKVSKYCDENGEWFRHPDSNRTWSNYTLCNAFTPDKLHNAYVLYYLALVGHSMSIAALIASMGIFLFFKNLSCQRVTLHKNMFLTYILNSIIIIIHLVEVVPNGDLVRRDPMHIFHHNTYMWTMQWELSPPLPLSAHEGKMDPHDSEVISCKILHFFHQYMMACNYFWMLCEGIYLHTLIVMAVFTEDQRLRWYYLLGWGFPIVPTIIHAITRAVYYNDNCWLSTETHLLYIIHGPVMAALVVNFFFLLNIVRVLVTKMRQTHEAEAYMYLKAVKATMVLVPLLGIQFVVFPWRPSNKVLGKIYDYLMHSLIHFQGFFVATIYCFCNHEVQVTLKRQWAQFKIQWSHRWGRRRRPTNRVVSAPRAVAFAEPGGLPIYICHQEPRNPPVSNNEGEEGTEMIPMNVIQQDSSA
Summary of the method: (§1)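 Thawed cells in HBSS/0.1% BSA/25 mM HEPES pH 7.4 with 0.5 mM IBMX were incubated with peptides 30 min at room temperature; cAMP read by HTRF. EC50 from 4-parameter fit of % activation relative to maximal amylin or calcitonin effect.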

[2] = in vivo; conditions: male, Sprague-Dawley, rat, 20 nmol/kg
[3] = target: T2, human amylin receptor (calcitonin receptor co-expressed with receptor activity modifying protein, RAMP3) (hAMYR3) (Homo sapiens, UniProt O60896+P30988); assay: cAMP production in 1321N1 cells with stable recombinant expression of human amylin receptor (hAMYR3); assay type: cell-based; conditions: for Ratio (selectivity hAMYR vs hCTR, ratio of EC50 values at the two receptors): EC50 hCTR / EC50 hAMYR3; for EC50: cAMP, 1321N1 cells, assay buffer with 0.1% BSA, read-out: EC50 (pM) hAMYR3
T2 construct: expressed in transfected cells
T2 sequence (P30988 25-474): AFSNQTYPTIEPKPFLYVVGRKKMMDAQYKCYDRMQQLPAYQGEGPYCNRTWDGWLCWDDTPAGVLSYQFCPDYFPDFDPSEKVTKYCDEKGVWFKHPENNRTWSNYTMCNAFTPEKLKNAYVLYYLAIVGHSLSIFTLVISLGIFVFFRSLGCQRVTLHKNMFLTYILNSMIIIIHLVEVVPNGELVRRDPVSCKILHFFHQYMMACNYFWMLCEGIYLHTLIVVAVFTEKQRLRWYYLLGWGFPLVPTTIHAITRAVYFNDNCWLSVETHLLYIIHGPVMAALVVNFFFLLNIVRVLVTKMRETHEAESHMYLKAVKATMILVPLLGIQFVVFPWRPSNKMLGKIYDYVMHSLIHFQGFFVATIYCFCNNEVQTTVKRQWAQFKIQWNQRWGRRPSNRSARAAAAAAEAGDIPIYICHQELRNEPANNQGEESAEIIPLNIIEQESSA
T2 sequence (O60896 24-148 partner): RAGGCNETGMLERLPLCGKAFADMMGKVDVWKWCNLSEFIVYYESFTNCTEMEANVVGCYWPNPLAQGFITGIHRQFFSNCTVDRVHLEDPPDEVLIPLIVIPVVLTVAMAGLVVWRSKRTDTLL
Summary of the method: as §1

[4] = test system: lean rats; assay: Rat acute food intake study; assay type: in vivo; conditions: lean male Sprague Dawley rats, 20 nmol/kg subcutaneously
Summary of the method: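 Male Sprague Dawley rats (n=7/group), fasted 6 h, received 20 nmol/kg test compound or 60 nmol/kg pramlintide subcutaneously 30 min before food return at dark onset. Food intake recorded automatically in home cages over 3 days, binned hourly and analysed as cumulative dark-period intake; body weight taken daily.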

EC50 [1] [pM] | half-life ([2]; iv) [h] | half-life ([2]; sc) [h] | Ratio (selectivity hAMYR vs hCTR, ratio of EC50 values at the two receptors) [3] | EC50 [3] [pM] | Compound | Cummulative food intake (% vehicle treated intake) At 12 h [4] [% vehicle treated intake] | Cummulative food intake (% vehicle treated intake) At 24 h [4] [% vehicle treated intake] | Cummulative food intake (% vehicle treated intake) At 48 h [4] [% vehicle treated intake]
10400 | 11.2 | 18.2 | 16 | 1170 | CC[C@H](C)[C@H](NC(=O)[C@@H]1CCCN1C(=O)CNC(=O)[C@H](Cc1ccccc1)NC(=O)[C@H](CC(N)=O)NC(=O)[C@H](CC(N)=O)NC(=O)[C@H](CO)NC(=O)[C@H](CO)NC(=O)[C@H](Cc1c[nH]cn1)NC(=O)[C@@H](NC(=O)[C@H](CC(C)C)NC(=O)[C@H](Cc1ccccc1)NC(=O)[C@H](CC(N)=O)NC(=O)[C@H](C)NC(=O)[C@H](CC(C)C)NC(=O)[C@H](CCCNC(=N)N)NC(=O)[C@H](CCC(N)=O)NC(=O)[C@@H](NC(=O)[C@H](C)NC(=O)[C@@H]1CSSC[C@H](NC(=O)[C@H](CCCCN)NC(=O)COCCOCCNC(=O)COCCOCCNC(=O)CC[C@H](NC(=O)CCCCCCCCCCCCCCCCCCC(=O)O)C(=O)O)C(=O)N[C@@H](CC(N)=O)C(=O)N[C@@H]([C@@H](C)O)C(=O)N[C@@H](C)C(=O)N[C@@H]([C@@H](C)O)C(=O)N1)[C@@H](C)O)C(C)C)C(=O)N[C@@H](CC(C)C)C(=O)N1CCC[C@H]1C(=O)N1CCC[C@H]1C(=O)N[C@H](C(=O)N[C@@H](CC(N)=O)C(=O)N[C@H](C(=O)NCC(=O)N[C@@H](CO)C(=O)N[C@@H](CC(N)=O)C(=O)N[C@H](C(=O)N[C@@H](Cc1ccc(O)cc1)C(N)=O)[C@@H](C)O)C(C)C)[C@@H](C)O [Peptide 113] ({C20 diacid-γGlu-AEEA-AEEA}-KCNTATCATQRLANFLVHSSNNFGPILPPTNVGSNTY-NH2; disulfide 2-7) | 69.5 | 65.8 | 77.9
258 | 11.8 | 19 | 2 | 861 | CC[C@H](C)[C@H](NC(=O)[C@@H]1CCCN1C(=O)CNC(=O)[C@H](Cc1ccccc1)NC(=O)[C@H](CC(N)=O)NC(=O)[C@H](CC(N)=O)NC(=O)[C@H](CO)NC(=O)[C@H](CO)NC(=O)[C@H](Cc1c[nH]cn1)NC(=O)[C@@H](NC(=O)[C@H](CC(C)C)NC(=O)[C@H](Cc1ccccc1)NC(=O)[C@H](CC(N)=O)NC(=O)[C@H](C)NC(=O)[C@H](CC(C)C)NC(=O)[C@H](CCCNC(=N)N)NC(=O)[C@H](CCC(N)=O)NC(=O)[C@@H](NC(=O)[C@H](C)NC(=O)[C@@H]1CSSC[C@H](NC(=O)[C@H](CCCCN)NC(=O)CC[C@H](NC(=O)CCCCCCCCCCCCCCCCCCC(=O)O)C(=O)O)C(=O)N[C@@H](CC(N)=O)C(=O)N[C@@H]([C@@H](C)O)C(=O)N[C@@H](C)C(=O)N[C@@H]([C@@H](C)O)C(=O)N1)[C@@H](C)O)C(C)C)C(=O)N[C@@H](CC(C)C)C(=O)N1CCC[C@H]1C(=O)N1CCC[C@H]1C(=O)N[C@H](C(=O)N[C@@H](CC(N)=O)C(=O)N[C@H](C(=O)NCC(=O)N[C@@H](CO)C(=O)N[C@@H](CC(N)=O)C(=O)N[C@H](C(=O)N[C@@H](Cc1ccc(O)cc1)C(N)=O)[C@@H](C)O)C(C)C)[C@@H](C)O [Peptide 112] ({C20 diacid-γGlu}-KCNTATCATQRLANFLVHSSNNFGPILPPTNVGSNTY-NH2; disulfide 2-7) | 15.8 | 15.9 | 22.1

From patent publication US20240067693A1, “POLYPEPTIDES AND USES THEREOF” (MEDIMMUNE LIMITED, priority 2020, published 2024)
